Assay results published in patent US20130217644A1, “Pharmaceutical Compositions of 2'-C-Methyl-Guanosine, 5'-[2[(3-Hydroxy-2,2-Dimethyl-1-Oxopropyl)Thio]Ethyl N-(Phenylmethyl)Phosphoramidate]” (IDENIX PHARMACEUTICALS, INC., priority 2012, published 2013).

How the values were obtained:
HCV replication = settings: in-vitro assays, as described in U.S. Pat. No. 7,951,789; cited from earlier work
[1] = Excipient compatibility: ethylene sulfide in 1:1 blends of compound 1 and excipient; type: physicochemical; settings: 1:1 weight ratio of compound 1 and excipient, glass vials, gentle rotation 30 minutes, ambient conditions
Procedure: Excipient compatibility of compound 1 with various excipients was determined. Samples of a 1:1 weight ratio of compound 1 and each excipient were blended in glass vials. The vials were subjected to gentle rotation to 30 minutes at ambient conditions. Samples were assayed for ethylene sulfide. Table 3 below presented the results for a selected group of the excipients evaluated: […]

[2] = Open-label randomized cross-over single-dose pharmacokinetic study, tablet vs liquid filled capsule; type: in vivo, human; settings: 50 mg single doses (tablet and capsule), healthy male subjects
Procedure: A lot of tablets manufactured under cGMP conditions utilizing the composition of Example 3 (with appropriate adjustment of the weight % of PROSOLV SMCC 90 to account for the potency of Compound 1) were utilized in a pharmacokinetic study. The human clinical study was study performed in conformance with the Declaration of Helsinki and approved by a local Ethics Committee. An open-label randomized cross-over single-dose pharmacokinetic effect study was conducted in 12 healthy male subjects (ages 19-65) to compare the relative exposure of the tablet composition (50 mg compound 1) as compared to the liquid filled capsule composition (50 mg of compound 1) in the fasted state. In addition, an un-randomized third period followed the first two periods in which all 12 subjects were dosed with the tablet composition (50 mg compound 1) in the fed state, and 8 of the 12 subjects returned for a fourth period in which the 8 subjects were dosed with the liquid filled capsule composition (50 mg compound 1) in the fed state. Plasma samples for pharmacokinetic (PK) analysis were taken over a period of 120 h after dosing during each treatment period. Dosing days were at least 6 days apart (Period 1, days 1 to 6; Period 2, days 7 to 13, Period 3, days 14 to 20; and Period 4 followed the initial three periods). […] The pharmacokinetic samples were assayed for 2′-C-methyl-guanosine as well as compound 1.

CC(C)(CO)C(=O)SCCOP(=O)(NCc1ccccc1)OC[C@H]1O[C@@H](n2cnc3c(=O)[nH]c(N)nc32)C(C)(O)C1O (stereo partly drawn) [Compound 1, 2′-C-methyl-guanosine, 5′-[2-[(3-hydroxy-2,2-dimethyl-1-oxopropyl)thio]ethyl N-(phenylmethyl)phosphoramidate]]
inhibition of HCV replication (in words) (HCV replication): ability to inhibit HCV replication | ppm Ethylene Sulfide Mean of 4 samples [1]: <9 ppm | serious adverse events [2]: No serious adverse events were reported
